The results in this text go back to ChEMBL document CHEMBL1158868, “Bioactive and other sesquiterpenes from Chiloscyphus rivularis” (J Nat Prod, 1997).

Molecules are shown by their SMILES. Values after ≈ are worked out from the molar mass of the structure shown. Active and inactive are the calls of the source. No cut-off for these calls is given here.

The IC50 is the midpoint of a concentration-inhibition curve. One may read the GI50 as the concentration at which growth is held to half of that of the control.

The subject of assay [1] is Saccharomyces cerevisiae. The experiment in a line: Antimicrobial activity against rad52 gene deficient and DNA repair deficient yeast RS322. It is filed as functional.
In assay [2] the test system is Saccharomyces cerevisiae. The experiment in a line: Antimicrobial activity against rad gene expressing and DNA repair proficient wild type yeast RS188N. In kind it is functional.
Assay [3] has as its system Saccharomyces cerevisiae. The experiment in a line: Antimicrobial activity against rad52.top1 gene deficient yeast RS321. In kind it is functional.
The test system of assay [4] is A549. The experiment in a line: Cytotoxicity against human A549 cells. It is filed as functional, cell-based.
The nature of assay [5]: Cytotoxicity against human NCI60 cells. It is filed as functional.

In the case of `C=C(C)C(=O)[C@H]1CC(=O)C2=CC(=O)C[C@H](C)[C@]21C`, in assay [1], the IC12 is > 500 µg/mL.

With `C=C(CO)C(=O)[C@H]1CCC2=CCC[C@H](C)[C@]21C`, the IC12 is 88 µg/mL in assay [2], 75 µg/mL in assay [1] and > 1000 µg/mL in assay [3]. Besides, the IC50 in assay [4] turned out to be 2 µg/mL (≈ 8.53 µM). Moreover, in assay [5], the GI50 was 10 µM.

For the molecule `C=C(CO)C(=O)[C@H]1CCC2=CC(=O)C[C@H](C)[C@]21C`, in assay [1], the IC12 was > 500 µg/mL.

`C=C(C)C(=O)[C@H]1CCC2=CC(=O)C[C@H](C)[C@]21C`: in assay [1], the IC12 is > 500 µg/mL.

Take `C[C@H]1CC[C@@H](O)[C@]23CC[C@H](C(=O)O2)[C@]13C` [RIVULALACTONE]: in assay [1], the IC12 is > 500 µg/mL.

In the case of `C[C@H]1CCC=C2CC[C@H](C(=O)C3(CO)CO3)[C@@]21C` (stereo partly specified), the outcome in assay [1] was inactive.

Turning to `C[C@H]1CCC=C2CC[C@H](C(=O)C(O)(CO)CO)[C@@]21C`, the outcome in assay [1] was inactive.
